{"source": "the supplement of paper PMC10307832", "assay_in_all_cases": "relative viability (nuclei count vs DMSO), 5 days (fraction); higher = more cells survive", "key": {"HOP-62": {"system": "HOP-62", "summary_of_the_method": "(§1)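 Relative viability divides the nuclei count in treated wells by that in vehicle wells. Lung cancer cell lines were seeded in 1536-well plates, dosed by pin tool the next day, and fixed and stained after 5 days in one step with final 0.05% Triton X-100, 1% formaldehyde and 1 ug/ml Hoechst. Dosing was a single drug or a fixed anchor-drug dose plus five library-drug doses (not always all listed) in √10 steps, and values are medians of duplicate plates imaged at 4×.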"}, "NCI-H1299": {"system": "NCI-H1299", "summary_of_the_method": "as §1"}, "A549": {"system": "A549", "summary_of_the_method": "as §1"}, "UMC-11": {"system": "UMC-11", "summary_of_the_method": "as §1"}, "Calu-6": {"system": "Calu-6", "summary_of_the_method": "as §1"}, "IA-LM": {"system": "IA-LM", "summary_of_the_method": "as §1"}, "EBC-1": {"system": "EBC-1", "summary_of_the_method": "as §1"}, "NCI-H23": {"system": "NCI-H23", "summary_of_the_method": "as §1"}, "NCI-H2009": {"system": "NCI-H2009", "summary_of_the_method": "as §1"}, "NCI-H322M": {"system": "NCI-H322M", "summary_of_the_method": "as §1"}, "NCI-H1703": {"system": "NCI-H1703", "summary_of_the_method": "as §1"}, "NCI-H1355": {"system": "NCI-H1355", "summary_of_the_method": "as §1"}, "NCI-H1648": {"system": "NCI-H1648", "summary_of_the_method": "as §1"}}, "data": [{"smiles": "COCC1(CO)C(=O)C2CCN1CC2", "note": "(stereo not given) [PRIMA-1MET] + CC1(C)CCC(c2ccc(Cl)cc2)=C(CN2CCN(c3ccc(C(=O)NS(=O)(=O)c4ccc(N[C@H](CCN5CCOCC5)CSc5ccccc5)c(S(=O)(=O)C(F)(F)F)c4)cc3)CC2)C1 [Navitoclax] (partner 0.5 µM)", "values": [{"measurement": "relative viability", "setting": "HOP-62; first compound 0.2 µM", "value": 1.44}, {"measurement": "relative viability", "setting": "HOP-62; first compound 0.6325 µM", "value": 1.01}, {"measurement": "relative viability", "setting": "HOP-62; first compound 2 µM", "value": 0.94}, {"measurement": "relative viability", "setting": "HOP-62; first compound 6.325 µM", "value": 0.962}, {"measurement": "relative viability", "setting": "HOP-62; first compound 20 µM", "value": 0.839}, {"measurement": "relative viability", "setting": "NCI-H1299; first compound 0.2 µM", "value": 1.14}, {"measurement": "relative viability", "setting": "NCI-H1299; first compound 0.6325 µM", "value": 1.04}, {"measurement": "relative viability", "setting": "NCI-H1299; first compound 2 µM", "value": 1.05}, {"measurement": "relative viability", "setting": "NCI-H1299; first compound 6.325 µM", "value": 1.11}, {"measurement": "relative viability", "setting": "NCI-H1299; first compound 20 µM", "value": 1.04}, {"measurement": "relative viability", "setting": "A549; first compound 0.2 µM", "value": 1.35}, {"measurement": "relative viability", "setting": "A549; first compound 0.6325 µM", "value": 1.09}, {"measurement": "relative viability", "setting": "A549; first compound 2 µM", "value": 1.23}, {"measurement": "relative viability", "setting": "A549; first compound 6.325 µM", "value": 1.16}, {"measurement": "relative viability", "setting": "A549; first compound 20 µM", "value": 1.08}, {"measurement": "relative viability", "setting": "UMC-11; first compound 0.2 µM", "value": 0.347}, {"measurement": "relative viability", "setting": "UMC-11; first compound 0.6325 µM", "value": 0.268}, {"measurement": "relative viability", "setting": "UMC-11; first compound 2 µM", "value": 0.332}, {"measurement": "relative viability", "setting": "UMC-11; first compound 6.325 µM", "value": 0.331}, {"measurement": "relative viability", "setting": "UMC-11; first compound 20 µM", "value": 0.333}, {"measurement": "relative viability", "setting": "Calu-6; first compound 0.2 µM", "value": 0.97}, {"measurement": "relative viability", "setting": "Calu-6; first compound 0.6325 µM", "value": 0.823}, {"measurement": "relative viability", "setting": "Calu-6; first compound 2 µM", "value": 0.845}, {"measurement": "relative viability", "setting": "Calu-6; first compound 6.325 µM", "value": 0.781}, {"measurement": "relative viability", "setting": "Calu-6; first compound 20 µM", "value": 0.305}, {"measurement": "relative viability", "setting": "IA-LM; first compound 0.2 µM", "value": 0.657}, {"measurement": "relative viability", "setting": "IA-LM; first compound 0.6325 µM", "value": 0.769}, {"measurement": "relative viability", "setting": "IA-LM; first compound 2 µM", "value": 0.714}, {"measurement": "relative viability", "setting": "IA-LM; first compound 6.325 µM", "value": 0.949}, {"measurement": "relative viability", "setting": "IA-LM; first compound 20 µM", "value": 0.806}, {"measurement": "relative viability", "setting": "EBC-1; first compound 0.2 µM", "value": 0.379}, {"measurement": "relative viability", "setting": "EBC-1; first compound 0.6325 µM", "value": 0.37}, {"measurement": "relative viability", "setting": "EBC-1; first compound 2 µM", "value": 0.427}, {"measurement": "relative viability", "setting": "EBC-1; first compound 6.325 µM", "value": 0.416}, {"measurement": "relative viability", "setting": "EBC-1; first compound 20 µM", "value": 0.151}, {"measurement": "relative viability", "setting": "NCI-H23; first compound 0.2 µM", "value": 1.03}, {"measurement": "relative viability", "setting": "NCI-H23; first compound 0.6325 µM", "value": 0.668}, {"measurement": "relative viability", "setting": "NCI-H23; first compound 2 µM", "value": 0.701}, {"measurement": "relative viability", "setting": "NCI-H23; first compound 6.325 µM", "value": 0.811}, {"measurement": "relative viability", "setting": "NCI-H23; first compound 20 µM", "value": 0.119}, {"measurement": "relative viability", "setting": "NCI-H2009; first compound 0.2 µM", "value": 1.2}, {"measurement": "relative viability", "setting": "NCI-H2009; first compound 0.6325 µM", "value": 1.23}, {"measurement": "relative viability", "setting": "NCI-H2009; first compound 2 µM", "value": 1.23}, {"measurement": "relative viability", "setting": "NCI-H2009; first compound 6.325 µM", "value": 1.16}, {"measurement": "relative viability", "setting": "NCI-H2009; first compound 20 µM", "value": 0.302}, {"measurement": "relative viability", "setting": "NCI-H322M; first compound 0.2 µM", "value": 1.51}, {"measurement": "relative viability", "setting": "NCI-H322M; first compound 6.325 µM", "value": 1.4}, {"measurement": "relative viability", "setting": "NCI-H322M; first compound 20 µM", "value": 1.13}, {"measurement": "relative viability", "setting": "NCI-H1703; first compound 0.2 µM", "value": 1.43}, {"measurement": "relative viability", "setting": "NCI-H1703; first compound 0.6325 µM", "value": 0.891}, {"measurement": "relative viability", "setting": "NCI-H1703; first compound 2 µM", "value": 1.18}, {"measurement": "relative viability", "setting": "NCI-H1703; first compound 6.325 µM", "value": 1.21}, {"measurement": "relative viability", "setting": "NCI-H1703; first compound 20 µM", "value": 0.0405}, {"measurement": "relative viability", "setting": "NCI-H1355; first compound 0.2 µM", "value": 1.08}, {"measurement": "relative viability", "setting": "NCI-H1355; first compound 0.6325 µM", "value": 0.791}, {"measurement": "relative viability", "setting": "NCI-H1355; first compound 2 µM", "value": 0.804}, {"measurement": "relative viability", "setting": "NCI-H1355; first compound 6.325 µM", "value": 0.947}, {"measurement": "relative viability", "setting": "NCI-H1355; first compound 20 µM", "value": 0.944}]}, {"smiles": "COCC1(CO)C(=O)C2CCN1CC2", "note": "(stereo not given) [PRIMA-1MET] + Nc1nc2[nH]cc(CCc3ccc(C(=O)N[C@@H](CCC(=O)O)C(=O)O)cc3)c2c(=O)[nH]1 [Pemetrexed] (partner 0.2 µM)", "values": [{"measurement": "relative viability", "setting": "NCI-H1648; first compound 0.2 µM", "value": 0.72}, {"measurement": "relative viability", "setting": "NCI-H1648; first compound 2 µM", "value": 0.776}, {"measurement": "relative viability", "setting": "NCI-H1648; first compound 20 µM", "value": 0.637}, {"measurement": "relative viability", "setting": "HOP-62; first compound 0.2 µM", "value": 0.407}, {"measurement": "relative viability", "setting": "HOP-62; first compound 0.6325 µM", "value": 0.377}, {"measurement": "relative viability", "setting": "HOP-62; first compound 2 µM", "value": 0.36}, {"measurement": "relative viability", "setting": "HOP-62; first compound 6.325 µM", "value": 0.377}, {"measurement": "relative viability", "setting": "HOP-62; first compound 20 µM", "value": 0.122}, {"measurement": "relative viability", "setting": "UMC-11; first compound 0.2 µM", "value": 0.866}, {"measurement": "relative viability", "setting": "UMC-11; first compound 0.6325 µM", "value": 0.693}, {"measurement": "relative viability", "setting": "UMC-11; first compound 2 µM", "value": 0.836}, {"measurement": "relative viability", "setting": "UMC-11; first compound 6.325 µM", "value": 0.768}, {"measurement": "relative viability", "setting": "UMC-11; first compound 20 µM", "value": 0.801}, {"measurement": "relative viability", "setting": "NCI-H23; first compound 0.2 µM", "value": 0.425}, {"measurement": "relative viability", "setting": "NCI-H23; first compound 0.6325 µM", "value": 0.595}, {"measurement": "relative viability", "setting": "NCI-H23; first compound 2 µM", "value": 0.443}, {"measurement": "relative viability", "setting": "NCI-H23; first compound 6.325 µM", "value": 0.579}, {"measurement": "relative viability", "setting": "NCI-H23; first compound 20 µM", "value": 0.175}, {"measurement": "relative viability", "setting": "NCI-H2009; first compound 0.2 µM", "value": 0.973}, {"measurement": "relative viability", "setting": "NCI-H2009; first compound 0.6325 µM", "value": 1.03}, {"measurement": "relative viability", "setting": "NCI-H2009; first compound 2 µM", "value": 1.03}, {"measurement": "relative viability", "setting": "NCI-H2009; first compound 6.325 µM", "value": 0.96}, {"measurement": "relative viability", "setting": "NCI-H2009; first compound 20 µM", "value": 0.435}, {"measurement": "relative viability", "setting": "NCI-H322M; first compound 0.2 µM", "value": 0.633}, {"measurement": "relative viability", "setting": "NCI-H322M; first compound 0.6325 µM", "value": 0.562}, {"measurement": "relative viability", "setting": "NCI-H322M; first compound 6.325 µM", "value": 0.624}, {"measurement": "relative viability", "setting": "NCI-H322M; first compound 20 µM", "value": 0.0887}, {"measurement": "relative viability", "setting": "NCI-H1355; first compound 0.2 µM", "value": 1.02}, {"measurement": "relative viability", "setting": "NCI-H1355; first compound 0.6325 µM", "value": 0.985}, {"measurement": "relative viability", "setting": "NCI-H1355; first compound 2 µM", "value": 1}, {"measurement": "relative viability", "setting": "NCI-H1355; first compound 6.325 µM", "value": 1.01}, {"measurement": "relative viability", "setting": "NCI-H1355; first compound 20 µM", "value": 1.04}]}]}
